Test results: EP0343398A2, “7-Substituted quinolone- and naphthyridinecarboxylic acid derivatives” (BAYER AG, priority 1988, dated 1989)
Values after ≈ are worked out from the molar mass of the structure shown.

Tests used:
Test in all cases: MIC determination (MHK-Werte), comparison with Ciprofloxacin
Assay type in all cases: cell-based
E.coli Neumann = conditions: for MIC: Escherichia coli
Staph. FK422 = test system: Staph. FK422
Pseudo-monas Walter = test system: Pseudo-monas Walter
Enterco. 9790 = test system: Enterco. 9790
Enteroc. 27101 = test system: Enteroc. 27101
Staph. 133 = test system: Staph. 133
Staph. 1756 = test system: Staph. 1756
Pseudo-monas Ellsworth = test system: Pseudo-monas Ellsworth

What does the source list for CCOC(=O)c1cn(C2CC2)c2cc(-c3ccccc3)c(F)cc2c1=O [Beispiel 1, 1-Cyclopropyl-6-fluor-1,4-dihydro-4-oxo-7-phenyl-3-chinolincarbonsäure-ethylester]?
MHK-Werte (E.coli Neumann): 0,062 µg/ml; MHK-Werte (Staph. FK422): ≤0,015 µg/ml; MHK-Werte (Pseudo-monas Walter): 0,5 µg/ml; MHK-Werte (Enterco. 9790): 0,125 µg/ml; MHK-Werte (Enteroc. 27101): 0,062 µg/ml; MHK-Werte (Staph. 133): 0,062 µg/ml; MHK-Werte (Staph. 1756): 0,062 µg/ml; MHK-Werte (Pseudo-monas Ellsworth): 0,25 µg/ml

Which MIC (E.coli Neumann) does the source give for O=C(O)c1cn(C2CC2)c2cc(-c3ccc4ccccc4c3)c(F)cc2c1=O [Beispiel 14] here?
Its MIC is 0.062 µg/mL (≈ 0.166 µM).

What about the MIC (Pseudo-monas Walter) of the same compound?
Its MIC is 1 µg/mL (≈ 2.68 µM).

What about the MIC (Pseudo-monas Ellsworth) of the same compound?
The MIC was 0.25 µg/mL (≈ 0.67 µM).

What does the source list for O=C(O)c1cn(C2CC2)c2cc(-c3cccnc3)c(F)cc2c1=O [Beispiel 16]?
MIC (E.coli Neumann): ≤ 0.015 µg/mL; MIC (Pseudo-monas Walter): 0.5 µg/mL (≈ 1.54 µM)

How did the MIC (E.coli Neumann) turn out when NCc1ccc(-c2cc3c(cc2F)c(=O)c(C(=O)O)cn3C2CC2)cc1 [Beispiel 20, 7-(4-Aminomethylphenyl)-1-cyclopropyl-6-fluor-1,4-dihydro-4-oxo-3-chinolincarbonsäure] was run?
Its MIC is ≤ 0.015 µg/mL.

With O=C(O)c1cn(C2CC2)c2cc(N3CCNCC3)c(F)cc2c1=O [Ciprofloxacin, reference compound] as the compound, how does the MIC (E.coli Neumann) read?
The MIC was ≤ 0.015 µg/mL.

And the MIC (Staph. FK422)?
Its MIC is 0.25 µg/mL (≈ 0.754 µM).

What about the MIC (Pseudo-monas Walter) of the same compound?
The MIC was 0.25 µg/mL (≈ 0.754 µM).

And the MIC (Enterco. 9790)?
Its MIC is 0.25 µg/mL (≈ 0.754 µM).

What about the MIC (Enteroc. 27101) of the same compound?
Its MIC is 0.25 µg/mL (≈ 0.754 µM).

What about the MIC (Staph. 133) of the same compound?
Its MIC is 0.25 µg/mL (≈ 0.754 µM).

What about the MIC (Staph. 1756) of the same compound?
The MIC was 0.25 µg/mL (≈ 0.754 µM).
